According to patent US6737425B1, “N,N-substituted cyclic amine derivatives” (Eisai Co., Ltd., priority 1998, dated 2004):

Key:
[1] = test system: glutamic acid release from rat cerebral cortex slices; test: Inhibitory activity on glutamic acid release (cerebral cortex slices, high-conc. KCl); type: cell-based; settings: glutamic acid release induced with 50 mM KCl, HPLC
Method: Inhibitory Activity on Glutamic Acid Release
Cerebral cortexes were isolated from SD strain male rats (8-week-old) and used to prepare 300 μm×300 μm slices by use of a slice chopper. The prepared slices were incubated at 37° C. for 30 minutes in solution C (120 mM NaCl, 4 mM KCl, 10 mM MgSO4, 16 mM NaHCO3, 10 mM glucose, 1 mM NaH2PO4, 10 mM HEPES-NaOH pH 7.4) in the presence of 95% O2/5% CO2. Thereafter, solution C was exchanged with fresh one, followed by further incubation for 30 minutes.
The cerebral cortex slices were incubated in a 24-wells plate for cell culture according to a multi-well method (Brain Res., 402, 255-263, 1987), and the release of glutamic acid was induced with 50 mM KCl. Solution D (120 mM NaCl, 4 mM KCl, 1.2 mM CaCl2, 1 mM MgSO4, 16 mM NaHCO3, 10 mM glucose, 1 mM NaH2PO4, 10 mM HEPES-NaOH pH 7.4) was aerated with 95% O2/5% CO2 and kept at 37° C. and used in this experiment. 50 mM KCl containing the same total amount of K^+ and Na^+ was prepared. Slices corresponding to 1 to 2 mg protein were placed on an upper cup provided with a mesh at the bottom, and 1.3 ml solution C or 50 mM KCl solution was introduced into a lower well, and the upper cup was transferred to a new well. 20 minutes before and 5 minutes after reaction was intiated, the test compound was added to solution D or 50 mM KCl.
Glutamic acid was quantified by HPLC using fluorescent etor (Ex. 330 nm Em. […]). The eluting solvent used was prepared by diluting 150 ml sodium citrate buffer for automatic amino acid analysis (Wako Pure Chemical Industries) 10-fold with distilled water, then adding MgCl2 thereto at the final concentration of 50 mM, and further diluting it twice with acetonitrile. The flow rate was 2.0 ml/min. The column used was Asahipak (ES-502N Denko, K. K.). The glutamic acid was converted into a derivative by addition, to 50 μl sample, of 50 μl deriving agent (10 mg o-phthalaldehyde/500 μl MeOH, 10 μl b-mercaptopropionic acid, 0.15 M sodium borate buffer pH 9.5, 100 μl) followed by stirring (Neuroscience Lett., 96, 202-206, 1989).

[2] = test system: mice in a formalin test; test: Antalgic effect (I) on mice in a formalin test; type: in vivo; settings: for average left hind leg-licking time, Mean: formalin 5 minutes later, measured for 5 minutes
Method: Antalgic Effect (I) on Mice in a Formalin Test
The antalgic action of the typical example of the compound of the present invention (Example 1) when intravenously administered was examined in the formalin test using mice (3).
ddy Mice (male, 4-week-old) purchased from Nippon SLC Ltd. were used in the experiment.
20.4 mg of the test compound was weighed, and 10.2 ml of 5.28% mannitol was added thereto to prepare 2 mg/ml (20 mg/kg) solution. Then, 3.8 ml of 5.28% mannitol was added to 3.8 ml of the 2 mg/ml solution to prepare 1 mg/ml (10 mg/kg) solution. Finally, 2.5 ml of 5.28% mannitol was added to 2.5 ml of the 1 mg/ml solution to prepare 0.5 mg/ml (5 mg/kg) solution. This test compound was weighed and prepared on the day when the experiment was conducted.
30 μl of commercial 35.0 to 38.0% formaldehyde was added to 970 μl physiological saline. The resulting solution was used as 3% formalin. Because the indicated purity of this commercial formaldehyde is 35.0 to 38.0%, the 3% formalin presently prepared and used is accurately 2.84 to 3.08% formalin.
The treatment group in this test consisted of 4 groups in total, that is, a control group, a 5 mg/kg test compound administration group, a 10 mg/kg administration group, and a 20 mg/kg administration group, and each group consisted of 5 animals.
The control group was given 0.1 ml of 5.28% mannitol per 10 g of the body weight. The test compound was administered at each concentration (0.5 mg/ml, 1 mg/ml, and 2 mg/ml) in an volume of 0.1 ml per 10 g of the body weight into the 5 mg/kg group, 10 mg/kg group and 20 mg/kg group, respectively.
5.28% mannitol was administered via the tail vein into each group given the compound of the present invention or into the control group, and the animals were placed in a transparent plastic observation cage. 5 minutes later, 20 μl of 3% formalin was subcutaneously administered into the bottom of the left hind leg of each mouse. The duration of the behavior of mouse's licking the left hind leg after administration of formalin was measured for 5 minutes and used as an indication of pain. The duration was expressed in second.
In the significant test, parametric one-way layout analysis of variance was conducted and then Dunnet-type multiple comparison was made (*: 0.01<p<0.05, **: p<0.01, vs. the control group). For the test, a statistical analysis assistant system with SAS 6.12 (SAS Institute Japan Ltd., Tokyo) integrated in it was used.

CC(C)C(C#N)(CCCN1CCN(CCOc2ccc(F)cc2)CC1)c1ccccc1 (centres unmarked) [Example 1, 1-[(4-Cyano-5-methyl-4-phenyl)hexyl]-4-[2-(4-fluorophenoxy)ethyl]piperazine]
IC50 [1]: 3.5 µM | average left hind leg-licking time, Mean ([2]; 5 mg/kg i.v. (tail vein)): 49.4 s | licking time compared to the control group ([2]; 5 mg/kg, 10 mg/kg and 20 mg/kg i.v.): statistically significant reduction in licking time | average left hind leg-licking time, Mean ([2]; 10 mg/kg i.v. (tail vein)): 23.6 s | average left hind leg-licking time, Mean ([2]; 20 mg/kg i.v. (tail vein)): 2.2 s
